From US11000033B2, “Ketone or oxime compound, and herbicide” (NISSAN CHEMICAL CORPORATION, priority 2014, dated 2021)

Key:
Type in all cases: in vivo
Chenopodium album = test: Test Example 5: herbicidal effect by foliage application, plastic box (symbol O); conditions: 320 g/ha, 3 weeks after application
Procedure, shortened: (§1)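 Leaf-applied emulsion, water-diluted to a preset herbicide dose, on two-week-old seedlings raised in a 25° C. to 30° C. greenhouse; injury rated at 3 weeks using earlier criteria.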

Apera spica-venti = test: Test Example 4: herbicidal effect by soil treatment (symbol L); conditions: for L: Apera spica-venti, herbicidal effect grade: 320 g/ha
Procedure, shortened: (§2)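 Seeds were sown in sterilized diluvial soil, covered with about 1.5 cm of soil, and the soil surface was sprayed with a water-diluted emulsion of the compound at a predetermined rate. Plants grew in a greenhouse at 25° C. to 30° C.; effects were scored visually 3 weeks after application.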

Stellaria media = test: Test Example 4: herbicidal effect by soil treatment (symbol P); conditions: for P: Stellaria media, herbicidal effect grade: 320 g/ha
Procedure, shortened: as §2

Scirpus juncoides = test: Test Example 1: herbicidal activity, application before weed generation in submerged conditions (symbol B); conditions: application herbicide amount 320 g/ha
Procedure, shortened: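 In a flooded pot test with alluvial soil, the emulsion-formulated compound was diluted with water to a predetermined amount and applied to the floodwater immediately on the sowing day. Pots were held in a greenhouse at 25–30 °C for 3 weeks before each weed was rated.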

Veronica persica = test: Test Example 4: herbicidal effect by soil treatment (symbol R); conditions: for R: Veronica persica, herbicidal effect grade: 320 g/ha
Procedure, shortened: as §2

Abutilon theophrasti = test: Test Example 4: herbicidal effect by soil treatment (symbol M); conditions: for M: Abutilon theophrasti, herbicidal effect grade: 320 g/ha
Procedure, shortened: as §2

Alopecurus myosuroides [1] = test: Test Example 5: herbicidal effect by foliage application, plastic box (symbol J); conditions: 320 g/ha, 3 weeks after application
Procedure, shortened: as §1

Monochoria vaginalis = test: Test Example 2: herbicidal activity, application during weed generation in submerged conditions (symbol C); conditions: Table 23; application herbicide amount 320 g/ha; grade 0-5 by criteria of Test Example 1
Procedure, shortened: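 Seeds sown in flooded alluvial soil (4 cm water) were grown in a 25-30° C greenhouse. At the one- to two-leaf stage, diluted emulsion of compound was applied to the water surface at a predetermined rate. Effect was scored 3 weeks later.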

soybean = test: Test Example 4: effect on crop by soil treatment (symbol d); conditions: for d: soybean, effect grade on crop: 320 g/ha
Procedure, shortened: (§3)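 Crop seed is sown in spots together with several weed species in a box of sterilized diluvial soil. It is covered by about 1.5 cm of soil and kept in a greenhouse held between 25° C. and 30° C.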

Setaria viridis = test: Test Example 4: herbicidal effect by soil treatment (symbol G); conditions: for G: Setaria viridis, herbicidal effect grade: 320 g/ha
Procedure, shortened: as §2

rice = test: Test Example 4: effect on crop by soil treatment (symbol b); conditions: for b: directly sowed rice plant, effect grade on crop: 320 g/ha
Procedure, shortened: as §3

Avena fatua = test: Test Example 4: herbicidal effect by soil treatment (symbol I); conditions: for I: Avena fatua, herbicidal effect grade: 320 g/ha
Procedure, shortened: as §2

Digitaria ciliaris = test: Test Example 5: herbicidal effect by foliage application, plastic box (symbol F); conditions: 320 g/ha, 3 weeks after application
Procedure, shortened: as §1

Alopecurus myosuroides [2] = test: Test Example 4: herbicidal effect by soil treatment (symbol J); conditions: for J: Alopecurus myosuroides, herbicidal effect grade: 320 g/ha
Procedure, shortened: as §2

rice plant = test: Test Example 5: effect on crop by foliage application, plastic box (symbol b); conditions: 320 g/ha, 3 weeks after application
Procedure, shortened: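 Crop and weed seeds sown in spots in sterilized diluvial soil in plastic boxes and covered with about 1.5 cm soil. Plants raised in a greenhouse at 25° C. to 30° C. for foliar application.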

wheat = test: Test Example 4: effect on crop by soil treatment (symbol e); conditions: for e: wheat, effect grade on crop: 320 g/ha
Procedure, shortened: as §3

[3] = test system: Echinochloa crus-galli var. crus-galli; test: Test Example 5: herbicidal effect by foliage application, plastic box (symbol H); conditions: 320 g/ha, 3 weeks after application
Procedure, shortened: as §1

[4] = application herbicide amount 320 g/ha

Row | SMILES | O: Chenopodium album, herbicidal effect grade (Chenopodium album) | Herbicidal effect grade, L: Apera spica-venti (Apera spica-venti; [4]) | Herbicidal effect grade, P: Stellaria media (Stellaria media; [4]) | B (Scirpus juncoides) herbicidal effect grade (Scirpus juncoides) | Herbicidal effect grade, R: Veronica persica (Veronica persica; [4]) | Herbicidal effect grade, M: Abutilon theophrasti (Abutilon theophrasti; [4]) | J: Alopecurus myosuroides, herbicidal effect grade (Alopecurus myosuroides [1]) | Herbicidal effect grade, C: Monochoria vaginalis (Monochoria vaginalis) | Effect on crop grade, d: soybean (soybean; [4]) | Herbicidal effect grade, G: Setaria viridis (Setaria viridis; [4]) | Effect on crop grade, b: directly sowed rice plant (rice; [4]) | Herbicidal effect grade, I: Avena fatua (Avena fatua; [4]) | F: Digitaria ciliaris, herbicidal effect grade (Digitaria ciliaris) | Herbicidal effect grade, J: Alopecurus myosuroides (Alopecurus myosuroides [2]; [4]) | b: directly sowed rice plant, effect on crop grade (rice plant) | Effect on crop grade, e: wheat (wheat; [4]) | H: Echinochloa crus-galli var. crus-galli, herbicidal effect grade [3] | O: Chenopodium album, herbicidal effect (criteria 0-5) (Chenopodium album) | L: Apera spica-venti, herbicidal effect grade (Apera spica-venti) | Herbicidal effect grade, B: Scirpus juncoides (Scirpus juncoides) | further results
1 | COC(=O)C(C(=O)C1CC1)C1CC(O)=C(c2c(C)cc(Br)cc2C)C1=O (mixture of isomers) [10-002] | 0 (Herbicidal ratio of 5% or lower (almost no effect)) | 3 (Herbicidal ratio of 40% or higher and lower than 70%) | 0 (Herbicidal ratio of 5% or lower (almost no effect)) | 0 (Herbicidal ratio of 5% or lower (almost no effect)) | 0 (Herbicidal ratio of 5% or lower (almost no effect)) | 0 (Herbicidal ratio of 5% or lower (almost no effect)) | 4 (Herbicidal ratio of 70% or higher and lower than 90%) | 0 (Herbicidal ratio of 5% or lower (almost no effect)) | 0 (Herbicidal ratio of 5% or lower (almost no effect)) | 4 (Herbicidal ratio of 70% or higher and lower than 90%) | 4 (Herbicidal ratio of 70% or higher and lower than 90%) | 3 (Herbicidal ratio of 40% or higher and lower than 70%) | 5 (Herbicidal ratio of 90% or more (almost completely withered)) | 0 (Herbicidal ratio of 5% or lower (almost no effect)) | 4 (Herbicidal ratio of 70% or higher and lower than 90%) | 0 (Herbicidal ratio of 5% or lower (almost no effect)) | 5 (Herbicidal ratio of 90% or more (almost completely withered)) |  |  |  | 
2 | CC(CC1CC(O)=C(c2c(C)cc(C)cc2C)C1=O)=NOCc1ccccc1C(F)(F)F (stereo not shown) [1-116] |  |  |  |  |  |  |  | 2 (Herbicidal ratio of 20% or higher and lower than 40%) |  |  |  |  |  |  |  |  |  | 3 (Herbicidal ratio of 40% or higher and lower than 70%) | 3 (Herbicidal ratio of 40% or higher and lower than 70%) | 4 (Herbicidal ratio of 70% or higher and lower than 90%) | P: Stellaria media, herbicidal effect grade (Stellaria media): 0 (Herbicidal ratio of 5% or lower (almost no effect)); R: Veronica persica, herbicidal effect grade (Veronica persica): 0 (Herbicidal ratio of 5% or lower (almost no effect)); M: Abutilon theophrasti, herbicidal effect grade (Abutilon theophrasti): 2 (Herbicidal ratio of 20% or higher and lower than 40%); J: Alopecurus myosuroides, herbicidal effect (criteria 0-5) (Alopecurus myosuroides [1]): 5 (Herbicidal ratio of 90% or more (almost completely withered)); d: soybean, effect grade on crop (soybean): 0 (Herbicidal ratio of 5% or lower (almost no effect)); G: Setaria viridis, herbicidal effect grade (Setaria viridis): 3 (Herbicidal ratio of 40% or higher and lower than 70%); b: directly sowed rice plant, effect grade on crop (rice): 1 (Herbicidal ratio of 5% or higher and lower than 20%); I: Avena fatua, herbicidal effect grade (Avena fatua): 3 (Herbicidal ratio of 40% or higher and lower than 70%); F: Digitaria ciliaris, herbicidal effect (criteria 0-5) (Digitaria ciliaris): 5 (Herbicidal ratio of 90% or more (almost completely withered)); J: Alopecurus myosuroides, herbicidal effect grade (Alopecurus myosuroides [2]): 4 (Herbicidal ratio of 70% or higher and lower than 90%); b: directly sowed rice plant, effect on crop (criteria 0-5) (rice plant): 4 (Herbicidal ratio of 70% or higher and lower than 90%); e: wheat, effect grade on crop (wheat): 0 (Herbicidal ratio of 5% or lower (almost no effect)); H: Echinochloa crus-galli var. crus-galli, herbicidal effect (criteria 0-5) [3]: 5 (Herbicidal ratio of 90% or more (almost completely withered))
3 | Cc1cc(Br)cc(C)c1C1=C(O)CC(CC(=O)C2CC2)C1=O (racemic) [10-004] | 0 (Herbicidal ratio of 5% or lower (almost no effect)) | 5 (Herbicidal ratio of 90% or more (almost completely withered)) | 0 (Herbicidal ratio of 5% or lower (almost no effect)) | 0 (Herbicidal ratio of 5% or lower (almost no effect)) | 0 (Herbicidal ratio of 5% or lower (almost no effect)) | 0 (Herbicidal ratio of 5% or lower (almost no effect)) | 5 (Herbicidal ratio of 90% or more (almost completely withered)) | 0 (Herbicidal ratio of 5% or lower (almost no effect)) | 0 (Herbicidal ratio of 5% or lower (almost no effect)) | 5 (Herbicidal ratio of 90% or more (almost completely withered)) | 5 (Herbicidal ratio of 90% or more (almost completely withered)) | 3 (Herbicidal ratio of 40% or higher and lower than 70%) | 5 (Herbicidal ratio of 90% or more (almost completely withered)) | 5 (Herbicidal ratio of 90% or more (almost completely withered)) | 5 (Herbicidal ratio of 90% or more (almost completely withered)) | 0 (Herbicidal ratio of 5% or lower (almost no effect)) | 5 (Herbicidal ratio of 90% or more (almost completely withered)) |  |  |  | 
4 | CON=C(C)CC1CC(OC(=O)c2nc(C)sc2C)=C(c2c(C)cc(C)cc2C)C1=O (stereo not shown) [1-101] |  |  |  |  |  |  |  | 2 (Herbicidal ratio of 20% or higher and lower than 40%) |  |  |  |  |  |  |  |  |  | 3 (Herbicidal ratio of 40% or higher and lower than 70%) | 5 (Herbicidal ratio of 90% or more (almost completely withered)) | 5 (Herbicidal ratio of 90% or more (almost completely withered)) | P: Stellaria media, herbicidal effect grade (Stellaria media): 0 (Herbicidal ratio of 5% or lower (almost no effect)); R: Veronica persica, herbicidal effect grade (Veronica persica): 0 (Herbicidal ratio of 5% or lower (almost no effect)); M: Abutilon theophrasti, herbicidal effect grade (Abutilon theophrasti): 5 (Herbicidal ratio of 90% or more (almost completely withered)); J: Alopecurus myosuroides, herbicidal effect (criteria 0-5) (Alopecurus myosuroides [1]): 5 (Herbicidal ratio of 90% or more (almost completely withered)); d: soybean, effect grade on crop (soybean): 2 (Herbicidal ratio of 20% or higher and lower than 40%); G: Setaria viridis, herbicidal effect grade (Setaria viridis): 5 (Herbicidal ratio of 90% or more (almost completely withered)); b: directly sowed rice plant, effect grade on crop (rice): 5 (Herbicidal ratio of 90% or more (almost completely withered)); I: Avena fatua, herbicidal effect grade (Avena fatua): 3 (Herbicidal ratio of 40% or higher and lower than 70%); F: Digitaria ciliaris, herbicidal effect (criteria 0-5) (Digitaria ciliaris): 5 (Herbicidal ratio of 90% or more (almost completely withered)); J: Alopecurus myosuroides, herbicidal effect grade (Alopecurus myosuroides [2]): 5 (Herbicidal ratio of 90% or more (almost completely withered)); b: directly sowed rice plant, effect on crop (criteria 0-5) (rice plant): 5 (Herbicidal ratio of 90% or more (almost completely withered)); e: wheat, effect grade on crop (wheat): 3 (Herbicidal ratio of 40% or higher and lower than 70%); H: Echinochloa crus-galli var. crus-galli, herbicidal effect (criteria 0-5) [3]: 5 (Herbicidal ratio of 90% or more (almost completely withered))
5 | CON=C(C)CC1CC(OS(C)(=O)=O)=C(c2c(C)cc(C)cc2C)C1=O (stereo not shown) [1-006] | 0 (Herbicidal ratio of 5% or lower (almost no effect)) |  |  |  |  |  | 5 (Herbicidal ratio of 90% or more (almost completely withered)) | 3 (Herbicidal ratio of 40% or higher and lower than 70%) |  |  |  |  | 5 (Herbicidal ratio of 90% or more (almost completely withered)) |  | 5 (Herbicidal ratio of 90% or more (almost completely withered)) |  | 5 (Herbicidal ratio of 90% or more (almost completely withered)) |  |  | 3 (Herbicidal ratio of 40% or higher and lower than 70%) | L (Apera spica-venti) herbicidal effect grade (Apera spica-venti; [4]): 5 (Herbicidal ratio of 90% or more (almost completely withered)); P (Stellaria media) herbicidal effect grade (Stellaria media; [4]): 0 (Herbicidal ratio of 5% or lower (almost no effect)); R (Veronica persica) herbicidal effect grade (Veronica persica; [4]): 0 (Herbicidal ratio of 5% or lower (almost no effect)); M (Abutilon theophrasti) herbicidal effect grade (Abutilon theophrasti; [4]): 4 (Herbicidal ratio of 70% or higher and lower than 90%); d (soybean) effect on crop grade (soybean; [4]): 0 (Herbicidal ratio of 5% or lower (almost no effect)); G (Setaria viridis) herbicidal effect grade (Setaria viridis; [4]): 4 (Herbicidal ratio of 70% or higher and lower than 90%); b (directly sowed rice plant) effect on crop grade (rice; [4]): 5 (Herbicidal ratio of 90% or more (almost completely withered)); I (Avena fatua) herbicidal effect grade (Avena fatua; [4]): 3 (Herbicidal ratio of 40% or higher and lower than 70%); J (Alopecurus myosuroides) herbicidal effect grade (Alopecurus myosuroides [2]; [4]): 4 (Herbicidal ratio of 70% or higher and lower than 90%); e (wheat) effect on crop grade (wheat; [4]): 0 (Herbicidal ratio of 5% or lower (almost no effect))
